Test: Biodistribution of radiolabeled closo-borate
Assay type: in vivo, Male athymic mice (nu/nu)
Details: mice; for tissue(s) with the highest concentration of radionuclide: 1 and 4 h pi; for concentration in urine: 1 h pi, urine at sacrifice; for route of excretion: inferred from tissue distribution at 1 and 4 h pi; for concentration in kidney: injected via lateral tail vein

Row | tissue(s) with the highest concentration of radionuclide | concentration in urine | route of excretion | concentration in kidney (1 h post injection) | concentration in kidney (4 h post injection) | Substance
1 | kidney | 320 ± 135 %ID/g | renal clearance | 6.6 %ID/g | 0.27 %ID/g | [Et3NH]2B10H8I-CONHpropyl [[^125I]1e]
2 | kidney | – | kidney | – | – | [Et3NH]2B12H10At-CONHpropyl [[^211At]2c]
3 | kidney | – | kidney | 19.8 %ID/g | 26.5 %ID/g | [Et3NH]2B12H10I-CONHpropyl [[^125I]2b]
4 | liver and intestines | 33.11 ± 14.06 %ID/g | – | – | – | [nBu4N]2B10H8At-CONHpropyl [[^211At]1c]
5 | liver and intestines | 174.43 ± 90.33 %ID/g | hepatobiliary rather than renal | – | – | [nBu4N]2B10H8I-CONHpropyl [[^125I]1b]
